{"source": "paper PMC3849007", "about": "(Journal of Experimental & Clinical Cancer Research : CR, 2013)", "key": {"anaesthetised guinea pig": {"system": "anaesthetised guinea pig", "test": "Cardiovascular effects in anaesthetised guinea pig", "assay_type": "in vivo", "conditions": "escalating iv doses 0.25, 0.5, 1 mg/kg, 60 min apart", "method": "After anaesthesia with approximately 40 to 60 mg/kg (i.p.) sodium pentobarbitone, a jugular vein was cannulated for administration of the vehicle or test substance. Arterial blood pressure (systolic, diastolic and mean) was measured via a catheter inserted into the carotid artery, heart rate was derived electronically from the pressure waveform and a sample of arterial blood determined blood gases (PO2 and PCO2), O2 saturation, standard bicarbonate (HCO3), pH and base excess before the start of the experiment. Electrocardiogram (ECG) limb electrodes recorded the standard lead II configuration and QTcB interval (calculated as QTcB = QT/(√RR)). The animal was allowed to stabilise after completion of the surgical preparation for a period of at least 15 min. Then, after a further 10 min period of continuous recording of ECG and haemodynamic variables, the test substance or vehicle was administered intravenously as 3 iv infusions with each administration separated by 60 min.\nSeveral limitations exist in the use of mouse and rat models for the study of cardiotoxic effects in pharmacology, which regard differences in myocardial function compared to the human heart. […]"}, "M3 muscarinic receptor": {"biological_target": "T1, M3 muscarinic receptor (Homo sapiens, UniProt P20309)", "T1 construct": "purchased Cerep (ExpresSProfile screen, contract service)", "T1 sequence (P20309 whole entry)": "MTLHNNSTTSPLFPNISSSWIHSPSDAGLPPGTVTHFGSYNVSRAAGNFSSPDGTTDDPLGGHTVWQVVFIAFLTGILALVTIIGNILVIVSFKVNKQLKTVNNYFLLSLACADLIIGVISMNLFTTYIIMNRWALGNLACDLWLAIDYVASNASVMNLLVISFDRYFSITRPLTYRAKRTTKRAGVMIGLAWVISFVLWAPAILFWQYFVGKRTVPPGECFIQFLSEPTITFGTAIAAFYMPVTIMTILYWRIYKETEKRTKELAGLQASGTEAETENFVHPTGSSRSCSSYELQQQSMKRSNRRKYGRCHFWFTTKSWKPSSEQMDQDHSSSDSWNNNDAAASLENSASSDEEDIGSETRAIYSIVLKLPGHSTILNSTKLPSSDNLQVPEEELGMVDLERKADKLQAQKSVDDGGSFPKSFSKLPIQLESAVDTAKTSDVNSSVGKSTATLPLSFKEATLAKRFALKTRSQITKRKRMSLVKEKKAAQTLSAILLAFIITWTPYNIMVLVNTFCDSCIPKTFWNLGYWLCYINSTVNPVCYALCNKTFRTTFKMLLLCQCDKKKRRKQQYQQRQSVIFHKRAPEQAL", "test": "Cerep ExpresSProfile receptor screen, M3", "conditions": "data not shown, read-out: % inhibition of ligand binding, M3 muscarinic receptor", "method": "To investigate the molecular bases of cardio toxicity, the agent was tested for its potential to interact with a panel of 54 pharmacological receptors, the majority being human recombinant receptors (Cerep ExpresSProfile screen) (http://www.cerep.fr)."}, "[1]": {"design": "method as in doi:10.1016/S0040-4020(01)90102-4", "conditions": "cited from earlier work"}}, "data": [{"smiles": "Cc1cc2c3c([n+](C)c4ccc(F)cc4c3c1)-c1cc(F)ccc1N2C", "note": "[Compound 1, 3,11-Difluoro-6,8,13-trimethyl-8H-quino[4,3,2-kl]acridinium metho-sulfate]", "values": [{"measurement": "effect on QTcB interval", "setting": "anaesthetised guinea pig; all doses, listed as RHPS4", "value": "marked and sustained increase in QTcB interval"}, {"measurement": "effect on heart rate", "setting": "anaesthetised guinea pig; cumulative 1.75 mg/kg", "value": "dose-related decrease in heart rate"}, {"measurement": "inhibition at 1 µM", "setting": "M3 muscarinic receptor", "value": "> 95", "unit": "%"}, {"measurement": "solubility", "setting": "[1]", "value": "high solubility"}]}]}
